US20090111810A1, “SUBSTITUTED PYRIMIDINE-5-CARBOXAMIDE AND 5-CARBOXYLIC ESTER KINASE INHIBITORS” (priority 2007, published 2009)

What was measured:
[1] = molecular target: T1, HER-2 kinase (GST-HIS6-Thrombin fusion, amino acids 679 to 1255 of HER-2) (Homo sapiens, UniProt P04626); test: HER-2 Kinase Assay; type: biochemical; conditions: for inhibition at 100 µM: test concentration of 100 μM, read-out: HER2 % inhibition; for IC50: read-out: HER2 IC50
T1 construct: HIS6-Thrombin site (N); purchased Proqinase (Freiburg, Germany)
Description: The HER-2 kinase used was purified at Proqinase (Freiburg, Germany) from a construct that consisted of a fusion of GST (Glutathione-S-Transferase), HIS6-Thrombin and the nucleotides encoding amino acids 679 to 1255 of HER-2 (Accession Number M11730).
A mixture of a 10× kinase reaction buffer (600 mM Hepes at pH 7.5, 30 mM Magnesium Chloride, 0.03 mM Sodium Vanadate and 500 μg/mL PEG 20,000), DTT (1.2 mM final from a 10 mM stock), ATP (1 μM from a 10 mM stock), biotinylated polyGluTyr (1.5 ng/μL final from stock of 1 μg/μL) prepared by Upstate Biotechnologies, Lake Placid, N.Y.), Manganese Chloride (3 mM final from a 1 M stock), γ-^33P-ATP (10 μCi/μL stock) and water (70 μL/well) was added to each well of a Streptavidin Flashplate (Cat. # SMP103, NEN, Boston, Mass.).
Test compound stock (1 μL) was added to the appropriate wells. Diluted GSTHER2 kinase (6.7 ng/μL diluted into 50 mM Tris-HCl at pH 8.0 and 0.1% bovine serum albumin) (30 μL) was added (total volume of 200 ng/well) to initiate the reactions.
The reaction plates were incubated at 30° C. for 1 hr. The reaction was terminated by aspirating the reaction mixture from the plate wells and washing the wells three times with a 1× PBS stop buffer (300 μL) and 100 mM EDTA. After the final wash, the same stop buffer (200 μL) was again added to the wells. The plates were then sealed and read on the TopCount scintillation counter.
Test compounds were assayed in triplicate at 8 concentrations at one-log dilutions starting at 100 μM. A maximum and minimum signal for the assay was determined on each plate. The percent inhibition of a test compound was calculated according to the formula: […]
(§1) For a series of test concentrations, the IC50 was derived by graphing percent inhibition against the log of the concentrations tested for a given compound.

[2] = test system: HeLa cervical adenocarcinoma; test: Inhibition of in vitro cell proliferation (14C-thymidine incorporation), HeLa; type: cell-based; conditions: Homo sapiens, HeLa cells
Description: (§2) The ability of a test compound to inhibit the proliferation of cell growth was determined by measuring incorporation of ^14C-labelled thymidine into newly synthesized DNA within the cells. This method was used on American Type Culture Collection (ATCC, Virginia) cell lines derived from carcinomas originating from several tissues such as HeLa cervical adenocarcinoma (ATCC Cat. #CCL-2), HCT-116 colon carcinoma (ATCC Cat. #CCL-247), and A375 malignant melanoma (ATCC Cat. #CRL-1619).
(§3) The carcinoma cells are trypsinized and counted. The cells (3000-8000 count) are added to each well of a 96-well CytoStar tissue culture treated scintillating microplate (Amersham #RPNQ0160) in complete medium (100 μL) and the plate is then incubated in complete medium for 24 hrs at 37° C. in an inert atmosphere containing 5% CO2.
(§4) Test compound (1 μL) in 100% DMSO is added to the plate test-wells with DMSO only added to control-wells. The plate is incubated in complete medium for a second 24 hr period at 37° C. in an atmosphere containing 5% CO2.
(§5) An aliquot of a solution of Methyl ^14C-thymidine (56 mC/mmol) (NEN #NEC568 or Amersham #CFA532) in complete medium (20 uL to provide 0.2 μCi/well) is then added to each well and the plate is incubated for a third 24 hr period at 37° C. in an atmosphere containing 5% CO2.
(§6) The plate contents are then discarded, the plate is washed twice with PBS (200 μL) and then PBS (200 μL) is added to each well. The plate is sealed and the degree of methyl ^14C-thymidine incorporation is quantified on a Packard Top Count.

[3] = test system: HCT-116 colon carcinoma; test: Inhibition of in vitro cell proliferation (14C-thymidine incorporation), HCT116; type: cell-based; conditions: Homo sapiens, HCT116 cells
Description: as §2, §3, §4, §5, §6

[4] = test system: A375 malignant melanoma; test: Inhibition of in vitro cell proliferation (14C-thymidine incorporation), A375; type: cell-based; conditions: Homo sapiens, A-375, A375 cells
Description: as §2, §3, §4, §5, §6

[5] = molecular target: T2, EGFR kinase (GST fusion of intracellular portion of EGFR, NM_005228) (Homo sapiens, UniProt P00533); test: EGFR Kinase Assay; type: biochemical; conditions: for inhibition at 2 µM: test concentration of 2 μM
T2 construct: The intracellular portion of EGFR started at nucleotide 2189 (corresponding to amino acid 667) and ended at the termination codon; made in house; host or cells: Sf9 insect cells (baculovirus)
From the text: The portion was PCR amplified with primers that added the lambda attB sequences to each end, recombined into an entry vector, then into a (GST destination vector (as described in Gateway Technologies Manual by Invitrogen Corporation, Carlsbad, Calif.).
The destination vector was recombined in the DH10BAC strain of bacteria to produce a bacmid. The bacmid was transfected into Sf 9 cells and the supernatant containing the baculovirus was collected. The GSTEGFR protein was purified using large cultures of Sf 9 cells infected with stock virus. After an appropriate period of time, the cells were collected and lysed. The GSTEGFR was then purified from the lysate on Glutathione-Sepharose columns (as described by Amersham Biosciences, Buckinghamshire, United Kingdom).
The free biotin was separated from the biotinylated polyGluTyr on a gel filtration column.
A mixture of a 10× kinase buffer (500 mM Tris at pH 8.0, 100 mM Magnesium Chloride and 1 mM Sodium Vanadate), DTT (1 mM final from 500 mM stock), ATP (5 μM final from […]), biotinylated polyGluTyr (10 μg/μL stock), γ-^33P ATP (10 μCi/μL stock) and water was added to each well (90 μL/well) of a Streptavidin Flashplate (Perkin Elmer, Wellesley, Mass.).
Test compound in 100% DMSO (2 μL) was added to the appropriate wells. Diluted GSTEGFR (1:300 dilution in 50 mM Tris at pH 8.0 and 0.1% bovine serum albumin) (10 μL) was added to the wells to initiate the reactions.
The plates were incubated at 30° C. for 1 hr with shaking, The reacted contents were removed and the plates were sequentially washed three times with a 1×PBS stop buffer (300 μL without Magnesium and Calcium) and 100 mM EDTA. After the final wash, the same stop buffer (200 μL) was added to the wells. The plates were then sealed and read on the TopCount scintillation counter.
Test compounds were assayed in triplicate at 16 concentrations at half-log dilutions starting at 200 μM. A maximum and minimum signal for the assay was determined on each plate. The percent inhibition of a test compound was calculated according to the formula
as §1

T2 sequence (P00533 669-1210 limits assumed): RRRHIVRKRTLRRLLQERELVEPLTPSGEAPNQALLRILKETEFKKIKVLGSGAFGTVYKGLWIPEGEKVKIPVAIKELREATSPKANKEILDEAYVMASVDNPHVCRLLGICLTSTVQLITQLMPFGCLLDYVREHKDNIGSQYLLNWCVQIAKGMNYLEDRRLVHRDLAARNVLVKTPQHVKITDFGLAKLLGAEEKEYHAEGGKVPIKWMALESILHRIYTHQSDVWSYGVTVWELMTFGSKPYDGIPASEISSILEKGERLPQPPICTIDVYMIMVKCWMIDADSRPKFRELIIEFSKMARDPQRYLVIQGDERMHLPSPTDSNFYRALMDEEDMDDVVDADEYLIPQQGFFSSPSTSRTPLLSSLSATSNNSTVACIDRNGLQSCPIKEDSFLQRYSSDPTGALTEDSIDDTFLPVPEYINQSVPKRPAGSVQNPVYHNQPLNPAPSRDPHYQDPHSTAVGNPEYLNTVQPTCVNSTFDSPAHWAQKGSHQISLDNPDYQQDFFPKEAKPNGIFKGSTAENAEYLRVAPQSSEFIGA
T1 sequence (P04626 679-1255): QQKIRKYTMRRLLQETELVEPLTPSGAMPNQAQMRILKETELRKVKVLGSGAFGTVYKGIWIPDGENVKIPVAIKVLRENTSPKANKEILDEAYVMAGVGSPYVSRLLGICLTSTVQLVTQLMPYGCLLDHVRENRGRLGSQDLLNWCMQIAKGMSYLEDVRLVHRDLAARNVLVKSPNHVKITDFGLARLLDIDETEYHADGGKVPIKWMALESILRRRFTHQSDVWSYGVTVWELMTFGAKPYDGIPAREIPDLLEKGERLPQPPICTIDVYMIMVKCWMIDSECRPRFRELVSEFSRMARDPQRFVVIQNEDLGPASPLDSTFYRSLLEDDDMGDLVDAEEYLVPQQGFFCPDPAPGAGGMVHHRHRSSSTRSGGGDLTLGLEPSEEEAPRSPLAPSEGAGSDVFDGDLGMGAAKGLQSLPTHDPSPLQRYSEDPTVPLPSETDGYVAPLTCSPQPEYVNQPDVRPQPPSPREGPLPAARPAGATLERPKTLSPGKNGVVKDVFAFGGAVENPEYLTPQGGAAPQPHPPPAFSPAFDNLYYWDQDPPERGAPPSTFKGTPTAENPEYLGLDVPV

SMILES | inhibition at 100 µM [1] | IC50 [2] | IC50 [3] | IC50 [4] | IC50 [1] | inhibition at 2 µM [5] | IC50 [5]
Nc1ncnc(Nc2ccc(OCc3ccccc3)c(Cl)c2)c1C(=O)OCCN1CCOCC1 [Cpd 3, 4-amino-6-(4-benzyloxy-3-chloro-phenylamino)-pyrimidine-5-carboxylic acid 2-morpholin-4-yl-ethyl ester] |  | > 10 µM |  | 5.1 µM | 1.38 µM |  | 
CCN(CC)C(=O)c1c(N)ncnc1Nc1ccc(OCc2ccccc2)c(Cl)c1 [Cpd 5, 4-amino-6-(4-benzyloxy-3-chloro-phenylamino)-pyrimidine-5-carboxylic acid diethylamide] | 39% | > 10 µM | > 10 µM | > 10 µM |  | 36% | 
Nc1ncnc(Nc2ccc(OCc3ccccc3)c(Cl)c2)c1C(=O)NCCN1CCCCC1 [Cpd 7, 4-amino-6-(4-benzyloxy-3-chloro-phenylamino)-pyrimidine-5-carboxylic acid (2-piperidin-1-yl-ethyl)-amide] |  | 34 µM | > 10 µM | > 1 µM | 10 µM | 42% | 
Nc1ncnc(Nc2ccc(OCc3ccccc3)c(Cl)c2)c1C(=O)NCCN1CCOCC1 [Cpd 8, 4-amino-6-(4-benzyloxy-3-chloro-phenylamino)-pyrimidine-5-carboxylic acid (2-morpholin-4-yl-ethyl)-amide] | 82% | > 10 µM | > 10 µM | > 10 µM |  | 35% | 
COc1ccc(CCNC(=O)c2c(N)ncnc2Nc2ccc(OCc3ccccc3)c(Cl)c2)cc1 [Cpd 9, 4-amino-6-(4-benzyloxy-3-chloro-phenylamino)-pyrimidine-5-carboxylic acid [2-(4-methoxy-phenyl)-ethyl]-amide] | 4% | > 100 µM | > 100 µM | > 100 µM |  | 28% | 
Nc1ncnc(Nc2ccc(OCc3ccccc3)c(Cl)c2)c1C(=O)NNC(=O)CCN1CCOCC1 [Cpd 13, 4-amino-6-(4-benzyloxy-3-chloro-phenylamino)-pyrimidine-5-carboxylic acid N′-(3-morpholin-4-yl-propionyl)-hydrazide] |  | > 100 µM | > 100 µM | > 100 µM | 5.7 µM |  | 0.62 µM
Nc1ncnc(Nc2ccc(OCc3ccccc3)c(Cl)c2)c1C=O [Cpd 14, 4-amino-6-(4-benzyloxy-3-chloro-phenylamino)-pyrimidine-5-carboxaldehyde] | 63% |  |  |  |  |  | 

Further lines, results first:

inhibition at 100 µM [1] | IC50 [2] | IC50 [3] | IC50 [4] | IC50 [1] | inhibition at 2 µM [5] | IC50 [5] | SMILES
92% | 1.9 µM | 3 µM | 1 µM |  |  |  | COC(=O)c1c(N)ncnc1Nc1ccc(OCc2ccccc2)c(Cl)c1 [Cpd 1, 4-amino-6-(4-benzyloxy-3-chloro-phenylamino)-pyrimidine-5-carboxylic acid methyl ester]
 | > 10 µM | > 10 µM | > 10 µM | 0.78 µM |  |  | Nc1ncnc(Nc2ccc(OCc3ccccc3)c(Cl)c2)c1C(=O)O [Cpd 2, 4-amino-6-(4-benzyloxy-3-chloro-phenylamino)-pyrimidine-5-carboxylic acid]
21% | > 10 µM | > 10 µM | > 10 µM |  | 34% |  | Nc1ncnc(Nc2ccc(OCc3ccccc3)c(Cl)c2)c1C(=O)OCc1cccc(F)c1 [Cpd 4, 4-amino-6-(4-benzyloxy-3-chloro-phenylamino)-pyrimidine-5-carboxylic acid 3-fluoro-benzyl ester]
33% | > 100 µM | > 100 µM | > 100 µM |  | 37% |  | COCCNC(=O)c1c(N)ncnc1Nc1ccc(OCc2ccccc2)c(Cl)c1 [Cpd 6, 4-amino-6-(4-benzyloxy-3-chloro-phenylamino)-pyrimidine-5-carboxylic acid (2-methoxy-ethyl)-amide]
12% | > 100 µM | > 100 µM | > 100 µM |  |  |  | Nc1ncnc(Nc2ccc(OCc3ccccc3)c(Cl)c2)c1C(=O)Nc1ccccc1 [Cpd 10, 4-amino-6-(4-benzyloxy-3-chloro-phenylamino)-pyrimidine-5-carboxylic acid phenylamide]
0% | > 100 µM | > 100 µM | > 100 µM |  | 36% |  | COc1ccc(NC(=O)c2c(N)ncnc2Nc2ccc(OCc3ccccc3)c(Cl)c2)cc1 [Cpd 11, 4-amino-6-(4-benzyloxy-3-chloro-phenylamino)-pyrimidine-5-carboxylic acid (4-methoxy-phenyl)-amide]
 | 3 µM | 3.4 µM | 1.7 µM | 0.15 µM |  |  | NNC(=O)c1c(N)ncnc1Nc1ccc(OCc2ccccc2)c(Cl)c1 [Cpd 12, 4-amino-6-(4-benzyloxy-3-chloro-phenylamino)-pyrimidine-5-carboxylic acid hydrazide]
